{"source": "paper PMC6443429", "about": "(Molecular pharmaceutics, 2019)", "origin": "cited, not measured here", "key": {"[1]": {"tested_on": "MC1R, B16/F10 melanoma cells"}, "[2]": {"tested_on": "MC1R, B16/F1 melanoma cells"}}, "data": [{"substance": "1,4,7,10-tetraazacyclononane-1,4,7,10-tetraacetic acid-Gly-Gly-Nle-c[Asp-His-DPhe-Arg-Trp-Lys]-CONH2 (sidechain bridge or staple) [DOTA-GGNle-CycMSHhex]", "values": [{"measurement": "MC1R binding affinity", "setting": "[1]", "result": "nanomolar"}, {"measurement": "MC1R binding affinity", "setting": "[2]", "result": "nanomolar"}]}]}
